Assay [1] is described as follows: Activity at metallo-beta-lactamase L1 (unknown origin) by UV-vis spectrophotometry analysis.
Assay [2] can be described thus: Activity at metallo-beta-lactamase L1 (unknown origin) by fluorescence spectrum analysis.
Assay [3] can be described thus: Activity at beta-lactamase type 2 (unknown origin) by fluorescence spectrum analysis.
Assay [4] is described as follows: Activity at beta-lactamase type 2 (unknown origin) by UV-vis spectrophotometry analysis.

As for `O=C(O)C1=C(CSc2ccc(NC(=O)c3cc4ccccc4oc3=O)cc2)CS[C@@H]2[C@H](NC(=O)c3cc4ccccc4oc3=O)C(=O)N12`, the Km is 13 µM in assay [1], 18 µM in assay [2], 11 µM in assay [3] and 18 µM in assay [4]. The kcat in assay [1] stood at 5 s⁻¹; in assay [2] it was 5 s⁻¹; in assay [3] it was 17 s⁻¹; in assay [4], 12 s⁻¹.

By Km is commonly meant the concentration of substrate that gives half-maximal velocity. A word on the kcat: it is the maximal rate divided by the concentration of active sites.
